Patent publication US11510928B2, “Use of mirtazapine in the treatment of inflammatory disorders, autoimmune disease and PBC” (UTI Limited Partnership, priority 2017, dated 2022)
“And” between values parts separate entries of the source, which are not always exact repeats. Equal entries are not always repeated.

How the values were obtained:
PBC patients [1] = assay: THIN database cohort study of PBC patients: decompensation, liver transplant and mortality free survival by drug usage; format: in vivo, human
Source text: We conducted a cohort study using The Health Improvement Network (THIN). THIN is one of the largest medical databases in the UK^8, consisting of prospectively gathered electronic medical records from over 11.1 million patients^8. […] Data from participant general practitioners across the UK is exported to the THIN administrators and database, which is updated every 3 months^11. The THIN database records demographic data and clinical events using Read codes, prescription medications, and laboratory values^12.
We identified patients with PBC Read code “J6160” from April 1974 until May 2007. This cohort was followed until May 2012. We excluded patients having overlap syndrome with autoimmune hepatitis or primary sclerosing cholangitis. The first code of PBC identified in the THIN database was considered the index (ie. diagnosis) date. FIG. 10 provides a flow diagram illustrating the selection of the study population. The primary outcome was the first occurrence of one of the three events following the diagnosis of PBC: (1) decompensation of cirrhosis (ascites, spontaneous bacterial peritonitis, hepatic encephalopathy, hepatorenal syndrome, variceal bleeding, jaundice, or hepatocellular carcinoma); (2) liver transplantation; or (3) death.
Read codes were used to identify patients with chronic depression disorder. Chronic depression was defined as follows: (1) never diagnosed with chronic depression; (2) past depression diagnosis prior to 90 days from PBC diagnosis; and (3) current depression diagnosis if a diagnosis was made within 90 days before or after a PBC diagnosis. Using THIN database therapy files, we assessed the impact of anti-depressant medications on outcomes of PBC patients (mortality, decompensation, and liver transplant).
For each anti-depressant medication, use was defined as follows: (1) never used the medication; (2) past use as defined as a previous code for medication use prior to 90 days of PBC diagnosis; and (3) current medication user if the medication code was identified within 90 days before or after a PBC diagnosis. We assessed the effect of each anti-depressant medication on study outcomes separately. Antidepressants were classified as typical or atypical and stratified accordingly. Atypical antidepressants include: Agomelatine, Bupropion and Mirtazapine. While typical antidepressants include the following groups: (a) Selective Serotonin Reuptake Inhibitors (SSRI): Citalopram, Escitalopram, Fluoxetine, Fluvoxamine, Paroxetine and Sertraline; (b) […] (SNRI): Desvenlafaxine, Duloxetine, Minacipran and Venlafaxine; (c) Serotonin modulators: Nefazodone, Trazodone and Vilazodone; (d) Tricyclics and tetracyclics: Amitriptyline, Amoxapine, Clomipramine, Desipramine, Doxepin, Imipramine, Maprotiline, Nortriptyline and Protriptyline, Trimiprramine; (e) Monamine oxidase inhibitors: Isocarboxazid, Phenelzine, Selegiline and Tranylcypromine.
We assessed age at diagnosis of PBC, sex, and the presence of coexisting liver disease (ie. chronic hepatitis either viral, alcoholic, or fatty liver disease; yes/no). Smoking status was classified (current, former, never smoked, or unknown status) at the time of PBC diagnosis, alcohol consumption was classified (current, former, never consumed alcohol, or unknown status) at PBC diagnosis. Ursodeoxycholic acid (UDCA) usage (ever/never recorded) was also determined.
In our primary analysis, we assessed demographic, clinical, and medication variables in the PBC cohort according to depression status. Where appropriate, we used the Fisher Exact test or Chi-Square test for categorical data, and the Kruskal-Wallis or Student's t-test for continuous data. Univariate analysis using Log Rank test and multivariate Cox Proportional Regression models were used to assess the impact of depression or anti-depressant medications on PBC outcomes as defined by death, decompensated cirrhosis, or liver transplant. […]

PBC patients [2] = settings: human, in vivo; listed as UDCA; cited from earlier work
[3] = URSO usage (ever/never recorded)

Row | Structure (SMILES) | Univariate HR, 10-year decompensation, liver transplant and mortality free survival (PBC patients [1]; current usage vs none) | Univariate HR, 10-year decompensation, liver transplant and mortality free survival (PBC patients [1]; usage prior to PBC diagnosis vs none) | Patients with PBC who do not fully respond to treatment (PBC patients [2]) | Multivariate model-1 HR (PBC patients [1]; [3]) | Multivariate model-2 HR (PBC patients [1]; [3]) | Univariate HR, 10-year decompensation, liver transplant and mortality free survival (PBC patients [1]; [3])
1 | CNCCC(Oc1ccc(C(F)(F)F)cc1)c1ccccc1 (stereo not drawn) [Fluoxetine] | 0.58 | 0.83 |  |  |  | 
2 | C[C@H](CCC(=O)O)[C@H]1CC[C@H]2[C@@H]3[C@@H](O)C[C@@H]4C[C@H](O)CC[C@]4(C)[C@H]3CC[C@]12C [URSO, ursodeoxycholic acid] |  |  | 30% to 40% and 30-40% | 1.00 | 1.00 | 0.80
